Here are results for 2 compounds from US9579319B2 (Redx Pharma PLC, priority 2013, dated 2017).

Series [1] deals with Hedgehog signalling pathway. As to the kind of experiment: Gli-reporter NIH3T3 luciferase assay (Hedgehog pathway inhibition). It counts as cell-based. As to conditions: NIH3T3, Gli-reporter NIH-3T3 cells, recombinant mouse sonic hedgehog, 24 hours, luminescence. A digest of the protocol:
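Mouse NIH3T3 cells with Gli-responsive luciferase reporter, pre-treated 1 h with compound (top final concentration 1 μM, 0.1% DMSO) in 0.5% calf serum medium. Then stimulated with recombinant mouse sonic hedgehog for 24 h at 37° C. Luminescence read-out (OneGLO), triplicates; IC50 reported.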

Series [2] in a line: Thermodynamic solubility with filtration. It counts as physicochemical. The note with it: aqueous buffer, thermodynamic from solid, pH 7.4 phosphate buffer (0.1 M), room temperature, filtered. How it is done: Thermodynamic Solubility with Filtration
0.5 mg is weighed into a Mini Uniprep filter vial (Whatman, PVDF, 0.2 μm). 0.5 mL of pH 7.4 phosphate buffer (0.1 M) is dispensed and the vial is shaken at 600 rpm for 24 h at room temperature. At the end of this period, the solution is then filtered and an aliquot of the filtrate is used to create a tenfold dilution. Standards are prepared by serially diluting a 1250 μg/mL DMSO stock solution of the compound to 125 and 2.5 μg/mL, in Acetonitrile/Water (50:50, v/v). The concentration of the filtrate and tenfold dilution is measured by detection against the two calibration standards.

The structures appear in SMILES notation. ≈ marks a conversion by molar mass, not a printed value. Like-named read-outs stand apart in the source and are kept apart here.

Turning to `CN(C(=O)Nc1ccc(F)cc1C(F)(F)F)C1CCN(c2nnc(-c3ccnn3C)c3ccncc23)CC1` [Example 112, 3-[4-fluoro-2-(trifluoromethyl)phenyl]-1-methyl-1-[1-[1-(2-methylpyrazol-3-yl)pyrido[3,4-d]pyridazin-4-yl]-4-piperidyl]urea], the IC50 in series [1] (read-out: Gli Luc nM (IC50)) was 1.26 nM; in series [1] (read-out: Gli luc IC50) it was below 10 nM. The compound also had a solubility at 24 h in series [2] of 399 µg/mL (≈ 755 µM).

As to `Cc1nc(CN(C)C2CCN(c3nnc(-c4ccnn4C)c4ccccc34)CC2)c(C(F)(F)F)o1` [Example 98, N-methyl-1-[4-(2-methylpyrazol-3-yl)phthalazin-1-yl]-N-[[2-methyl-5-(trifluoromethyl)oxazol-4-yl]methyl]piperidin-4-amine], the IC50 in series [1] (read-out: Gli luc IC50) is 10 to 200 nM. Besides, the solubility at 24 h in series [2] is 106 µg/mL (≈ 218 µM).

One may read the IC50 as the concentration that gives 50% inhibition. Broadly, the solubility is the dissolved amount per volume that the medium holds.
